From ChEMBL document CHEMBL4420071, “Method for treating skin with retinoids and retinoid boosters” (2013)
Values belong to the molecule of their own block, whether it stands above or below them.

Experiments:
Homo sapiens [1] = species on record: Homo sapiens
[2] = molecular target: T1, Lecithin retinol acyltransferase (Bos taurus) (UniProt Q9BGL2); settings: at 100 µM
T1 sequence (whole entry): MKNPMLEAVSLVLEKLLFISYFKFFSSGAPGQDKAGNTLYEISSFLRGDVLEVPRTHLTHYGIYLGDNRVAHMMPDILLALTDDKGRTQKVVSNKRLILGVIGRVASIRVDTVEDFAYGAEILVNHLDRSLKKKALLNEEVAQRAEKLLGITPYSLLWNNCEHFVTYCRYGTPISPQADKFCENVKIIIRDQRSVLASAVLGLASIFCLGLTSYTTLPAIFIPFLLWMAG
Description: Inhibition of LRAT in bovine RPE microsomes at 100 uM using retinol substrate in presence of Palmitoyl-CoA incubated for 5 mins by HPLC analysis relative to control

[3] = molecular target: T2, Diacylglycerol O-acyltransferase 1 (Bos taurus) (UniProt Q8MK44); settings: at 100 µM
T2 sequence (whole entry): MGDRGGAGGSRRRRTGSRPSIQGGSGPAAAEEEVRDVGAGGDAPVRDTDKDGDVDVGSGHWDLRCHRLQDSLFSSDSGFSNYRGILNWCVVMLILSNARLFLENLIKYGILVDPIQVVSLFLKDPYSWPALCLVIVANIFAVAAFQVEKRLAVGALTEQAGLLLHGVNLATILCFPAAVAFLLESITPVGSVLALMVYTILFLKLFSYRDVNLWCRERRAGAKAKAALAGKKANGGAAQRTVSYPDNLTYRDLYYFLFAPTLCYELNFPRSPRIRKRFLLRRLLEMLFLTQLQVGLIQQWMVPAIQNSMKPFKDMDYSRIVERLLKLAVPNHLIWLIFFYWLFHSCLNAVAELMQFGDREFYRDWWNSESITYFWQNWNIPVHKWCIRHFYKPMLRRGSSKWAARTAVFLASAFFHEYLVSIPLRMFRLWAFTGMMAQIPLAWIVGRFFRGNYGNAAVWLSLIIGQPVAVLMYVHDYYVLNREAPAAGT
Description: Inhibition of ARAT in bovine RPE microsomes at 100 uM using retinol substrate in presence of dilauroyl-phosphatidyl choline incubated for 5 mins by HPLC analysis relative to control

[4] = molecular target: T1, Lecithin retinol acyltransferase (Bos taurus); assay: Inhibition of LRAT in bovine RPE microsomes at 10 uM using retinol substrate in presence of Palmitoyl-CoA incubated for 5 mins by HPLC analysis relative to control
Homo sapiens [5] = species on record: Homo sapiens; assay: Inhibition of transglutaminase in human keratinocytes assessed as mean transglutaminase activity level at 1.1 10^-8M in presence of 10 uM retinal relative to retinal alone; type: cell-based; set-up: scale not given: the % may be the effect or the level left
Homo sapiens [6] = species on record: Homo sapiens; assay: Inhibition of transglutaminase in human keratinocytes assessed as mean transglutaminase activity level at 1.1 10^-4M in presence of 10 uM retinal relative to retinal alone; type: cell-based; set-up: scale not given: the % may be the effect or the level left
Homo sapiens [7] = species on record: Homo sapiens; assay: Inhibition of transglutaminase in human keratinocytes assessed as mean transglutaminase activity level at 8.2 10^-6M in presence of 10 uM retinal relative to retinal alone; type: cell-based; set-up: scale not given: the % may be the effect or the level left
[8] = molecular target: T3, Cellular retinoic acid-binding protein 2 (Homo sapiens) (UniProt P29373); assay: Inhibition of radioactive all-trans retinoic acid binding to CRABP2 (unknown origin) expressed in Escherichia coli BLR(DE3)pLys incubated for 1 hr by scintillation counting assay; settings: concentration not given here
T3 sequence (whole entry): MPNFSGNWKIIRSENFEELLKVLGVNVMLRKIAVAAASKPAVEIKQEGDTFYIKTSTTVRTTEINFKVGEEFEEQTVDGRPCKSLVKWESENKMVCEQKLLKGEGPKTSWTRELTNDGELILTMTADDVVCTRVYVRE

Homo sapiens [9] = species on record: Homo sapiens; assay: Inhibition of transglutaminase in human keratinocytes assessed as mean transglutaminase activity level at 1.23 10^-5M in presence of 10 uM retinal relative to retinal alone; type: cell-based; set-up: scale not given: the % may be the effect or the level left
Homo sapiens [10] = species on record: Homo sapiens; assay: Inhibition of transglutaminase in human keratinocytes assessed as mean transglutaminase activity level at 5.0 10^-8M in presence of 10 uM retinal relative to retinal alone; type: cell-based; set-up: scale not given: the % may be the effect or the level left
Homo sapiens [11] = species on record: Homo sapiens; assay: Inhibition of transglutaminase in human keratinocytes assessed as mean transglutaminase activity level at 3.73 10^-4M in presence of 10 uM retinal relative to retinal alone; type: cell-based; set-up: scale not given: the % may be the effect or the level left
Homo sapiens [12] = species on record: Homo sapiens; assay: Inhibition of transglutaminase in human keratinocytes assessed as mean transglutaminase activity level at 1.65 10^-7M in presence of 10 uM retinal relative to retinal alone; type: cell-based; set-up: scale not given: the % may be the effect or the level left
Homo sapiens [13] = species on record: Homo sapiens; assay: Inhibition of transglutaminase in human keratinocytes assessed as mean transglutaminase activity level at 4.1 10^-5M in presence of 10 uM retinal relative to retinal alone; type: cell-based; set-up: scale not given: the % may be the effect or the level left
[14] = molecular target: T2, Diacylglycerol O-acyltransferase 1 (Bos taurus); assay: Inhibition of ARAT in bovine RPE microsomes at 10 uM using retinol substrate in presence of dilauroyl-phosphatidyl choline incubated for 5 mins by HPLC analysis relative to control

Structure (SMILES): CC(=O)/C=C/C1C(C)=CCCC1(C)C (configuration not stated)
- IC20 (Homo sapiens [1]): 1.42 ×10⁻⁴ M

Structure (SMILES): CCCCC/C=C\C/C=C\CCCCCCCC(=O)NCCO
- inhibition [4]: 20%
- IC20 (Homo sapiens [1]): 1.48 ×10⁻⁵ M

Structure (SMILES): O=C1C[C@@H](c2ccc(O)cc2)Oc2cc(O)cc(O)c21
- inhibition [2]: 14%

Structure (SMILES): CCCCCCCCCCCCCC(=O)N(C)CC(=O)O
- inhibition [2]: 11%
- inhibition [3]: 41%

Structure (SMILES): C[C@H]1[C@H](C)CC[C@]2(C(=O)O)CC[C@]3(C)C(=CC[C@@H]4[C@@]5(C)CC[C@H](O)C(C)(C)[C@@H]5CC[C@]43C)[C@H]12
- IC20 (Homo sapiens [1]): 5.94 ×10⁻⁷ M

Structure (SMILES): CCC=CCCC=CC=O
- inhibition [3]: 20%

Structure (SMILES): CCCCCCCC/C=C\CCCCCCCC1=NCCN1CCO
- IC20 (Homo sapiens [1]): 5.65 ×10⁻⁶ M

Structure (SMILES): CCCCC/C=C\C/C=C\CCCCCCCC(=O)NC(C)c1ccccc1 (configuration not stated)
- inhibition [2]: 43%
- inhibition [3]: 64%

Structure (SMILES): CCCCCCCC/C=C\CCCCCCCC[N+](C)(C)CC(=O)[O-]
- inhibition [3]: 47%
- IC20 (Homo sapiens [1]): 1.08 ×10⁻⁵ M

Structure (SMILES): O=C(O)CCCCCCCCCCCCCCC(=O)O
- Activity (Homo sapiens [5]): 70%
- Activity (Homo sapiens [6]): 14.2%
- Activity (Homo sapiens [7]): 114%
- inhibition [8]: > 50%
- Activity (Homo sapiens [9]): 130%
- Activity (Homo sapiens [10]): 74%
- Activity (Homo sapiens [11]): 43.4%
- Activity (Homo sapiens [12]): 95%
- Activity (Homo sapiens [13]): 105%
- IC20 (Homo sapiens [1]): 8.4 ×10⁻⁵ M

Structure (SMILES): CC(=O)c1cc2c(cc1C)C(C)(C)C(C)CC2(C)C (configuration not stated)
- inhibition [2]: 33%

Structure (SMILES): CCCCCCCCCCCC1=NCCN1CCO
- IC20 (Homo sapiens [1]): 2.69 ×10⁻⁷ M

Structure (SMILES): Clc1ccc(COC(Cn2ccnc2)c2ccc(Cl)cc2Cl)c(Cl)c1 (configuration not stated)
- IC20 (Homo sapiens [1]): 8.42 ×10⁻⁸ M

Further lines, with some results ahead:

- inhibition [2]: 75%
- inhibition [3]: 70%
Structure (SMILES): CC1=CC[C@H](CC[C@H](C)CO)C1(C)C

- inhibition [4]: 64%
- inhibition [2]: 95%
Structure (SMILES): C/C=C/C(=O)C1C(C)C=CCC1(C)C (configuration not stated)

- inhibition [2]: 49%
Structure (SMILES): CCOC(=O)C1=C(C)C=CCC1(C)C

- inhibition [4]: 0%
Structure (SMILES): CC(/C=C/C=C(\C)C(=O)O)=C\C=C\C=C(C)\C=C\C=C(/C)C(=O)O
- IC20 (Homo sapiens [1]): 2.52 ×10⁻⁵ M

- inhibition [2]: 0%
Structure (SMILES): CCN(CC)CC(=O)Nc1c(C)cccc1C

- inhibition [14]: 67%
- inhibition [4]: 87%
- inhibition [2]: 98%
- inhibition [3]: 83%
Structure (SMILES): C/C=C\C(=O)C1C(C)=CCCC1(C)C (configuration not stated)
- IC20 (Homo sapiens [1]): 1.69 ×10⁻⁴ M

- inhibition [14]: 45%
Structure (SMILES): C/C=C/C(=O)C1=C(C)CCCC1(C)C

- inhibition [4]: 29%
- inhibition [2]: 79%
- inhibition [3]: 70%
Structure (SMILES): C/C=C/C(=O)C1=C(C)C=CCC1(C)C

- inhibition [2]: 16%
- inhibition [3]: 18%
Structure (SMILES): CC1=CC(C)C(CO)C(C)C1 (configuration not stated)

- inhibition [2]: 12%
- inhibition [3]: 23%
Structure (SMILES): CC(=O)C1(C)C2CC3C(C2)C31C (configuration not stated)
